# Experimental data as given in PMC10964662, “Domperidone inhibits cell proliferation via targeting MEK and CDK4 in esophageal squamous cell carcinoma” (Cancer Cell International, 2024).
# How the values were obtained:
# [1] = target: T1, MEK2 (Homo sapiens, UniProt P36507); experiment: SPR (Biacore T200, CM5 chip); also pull-down, DARTS and in vitro kinase assay; assay type: binding
# T1 construct: gene MAP2K2; active MEK2 human recombinant protein
# [2] = target: CDK4 (Homo sapiens, UniProt P11802); experiment: pull-down with domperidone-Sepharose 4B beads and DARTS in KYSE150/KYSE450 lysates; assay type: cell-based
# CDK4, sequence (P11802 2-303): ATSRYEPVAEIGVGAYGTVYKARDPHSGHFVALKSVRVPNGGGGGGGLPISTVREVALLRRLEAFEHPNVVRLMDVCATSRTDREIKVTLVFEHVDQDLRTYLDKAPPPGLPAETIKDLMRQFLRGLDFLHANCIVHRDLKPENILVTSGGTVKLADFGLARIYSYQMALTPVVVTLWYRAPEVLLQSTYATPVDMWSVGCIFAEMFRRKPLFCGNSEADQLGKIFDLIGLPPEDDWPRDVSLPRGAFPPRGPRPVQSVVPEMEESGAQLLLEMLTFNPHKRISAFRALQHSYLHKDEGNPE
# [3] = target: T2, MEK1 (Homo sapiens, UniProt Q02750); experiment: SPR (Biacore T200, CM5 chip); also pull-down, DARTS and in vitro kinase assay; assay type: binding
# T2 construct: gene MAP2K1; active MEK1 human recombinant protein
# T2 sequence (Q02750 whole entry): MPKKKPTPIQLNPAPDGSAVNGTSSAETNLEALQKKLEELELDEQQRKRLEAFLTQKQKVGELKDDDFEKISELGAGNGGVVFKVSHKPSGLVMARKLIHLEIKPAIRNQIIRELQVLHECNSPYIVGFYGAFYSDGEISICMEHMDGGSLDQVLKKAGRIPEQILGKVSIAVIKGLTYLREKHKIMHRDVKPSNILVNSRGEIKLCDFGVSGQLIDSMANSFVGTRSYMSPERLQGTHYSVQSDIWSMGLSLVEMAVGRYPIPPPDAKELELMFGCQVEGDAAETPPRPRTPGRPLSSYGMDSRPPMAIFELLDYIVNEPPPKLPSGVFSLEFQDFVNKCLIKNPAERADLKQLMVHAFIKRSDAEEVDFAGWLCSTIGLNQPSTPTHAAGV
# T1 sequence (P36507 whole entry): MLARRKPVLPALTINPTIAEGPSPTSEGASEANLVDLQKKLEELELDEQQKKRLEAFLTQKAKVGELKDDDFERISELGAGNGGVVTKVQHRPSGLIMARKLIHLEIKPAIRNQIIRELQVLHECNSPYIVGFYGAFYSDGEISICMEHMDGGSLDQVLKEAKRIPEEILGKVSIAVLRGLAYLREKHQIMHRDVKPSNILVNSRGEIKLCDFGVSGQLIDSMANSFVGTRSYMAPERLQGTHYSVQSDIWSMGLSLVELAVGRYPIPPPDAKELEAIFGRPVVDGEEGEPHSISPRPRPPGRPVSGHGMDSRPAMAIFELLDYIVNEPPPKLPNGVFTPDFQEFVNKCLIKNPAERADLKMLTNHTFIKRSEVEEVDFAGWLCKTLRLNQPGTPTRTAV
compound,measurement,setting,value
"O=c1[nH]c2ccccc2n1CCCN1CCC(n2c(=O)[nH]c3cc(Cl)ccc32)CC1 [compound 9, Domperidone]",Kd,[1],6.66 µM
same,pull-down with domperidone-Sepharose 4B beads and DARTS in KYSE150/KYSE450 lysat,[2],"DARTS assay also validated that domperidone could directly interact with MEK1, MEK2 and CDK4 ex vivo"
same,Kd,[3],6.2 µM
